Biological target: T1, CfAM (Cordyceps farinosa, UniProt A0A5S8WFA8)
T1 construct: A, B and C domains (native enzyme lacks CBM20); secreted from Aspergillus oryzae MT3568, mature about 48 kDa, no tag told; two monomers in the asymmetric unit
T1 sequence (A0A5S8WFA8 19-460): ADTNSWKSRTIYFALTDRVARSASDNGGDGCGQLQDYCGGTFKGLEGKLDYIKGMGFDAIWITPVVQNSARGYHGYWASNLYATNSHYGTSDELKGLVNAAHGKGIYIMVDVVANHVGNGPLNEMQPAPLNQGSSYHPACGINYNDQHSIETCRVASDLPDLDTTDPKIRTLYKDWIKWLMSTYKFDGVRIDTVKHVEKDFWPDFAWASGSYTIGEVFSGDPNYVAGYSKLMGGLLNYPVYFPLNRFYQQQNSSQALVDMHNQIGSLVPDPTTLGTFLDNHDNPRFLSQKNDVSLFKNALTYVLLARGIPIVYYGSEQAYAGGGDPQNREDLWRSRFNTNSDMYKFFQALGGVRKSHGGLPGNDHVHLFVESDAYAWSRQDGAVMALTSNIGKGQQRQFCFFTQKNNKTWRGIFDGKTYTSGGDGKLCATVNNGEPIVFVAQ
Test: X-ray crystallography, […] Å
Format: binding
Details: co-crystallised with 40 mM acarbose, 12% PEG 3350, 0.2 M NaNO3, CAPS pH 11.0; active-site cleft, subsites -4 to +3; ligand formed from acarbose in crystallo crystal (acarbose added, no maltose additio)

In the case of `OC[C@H]1O[C@H](O[C@H]2[C@H](O)[C@@H](O)C(O)O[C@@H]2CO)[C@H](O)[C@@H](O)[C@@H]1O` (stereo partly shown) [maltose], the “X-ray crystallography, 1.35 Å” value was “a secondary binding site in domain C was identified and modelled as maltose”.

— PMC6801514, “Structural and Functional Characterization of Three Novel Fungal Amylases with Enhanced Stability and pH Tolerance” (International Journal of Molecular Sciences, 2019)
